Key:
[1] = tested on: cell surface CEA expression of colorectal cancer organoid lines; experiment: Wnt/β-catenin pathway inhibition assay: cell surface CEA expression of PDOs by flow cytometry; assay type: cell-based, human; settings: PDOs with mixed CEA expression; 10 μM for 3 days; FACS
Description: Two PDO lines with mixed CEA expression were treated with an inhibitor of WNT signalling: the tankyrase inhibitor compound 21 which inhibits the downstream WNT/β-catenin pathway by stabilizing the β-catenin destruction complex (Elliott et al., Med Chem Comm. 2015; 6(9):1687-92; Mariotti et al., Br J Pharmacol. 2017; 174(24):4611-36).
Cell lines were harvested using enzyme-free Cell Dissociation Buffer (Thermo Fisher) and PDOs with TrypLE Express (Gibco). 2×10^5 cells were stained with 20 nM of the human anti-human CEA antibody CH1A1A (Roche) and 25 ug/ml of the R-Phycoerythrin conjugated secondary antibody AffiniPure F(ab′)2 Fragment Goat Anti-Human IgG, Fcγ Fragment Specific (Stratech). DRAQ7 (Biostatus) staining was included for dead cell exclusion. CEA expression was analysed on a Sony SH800 flow cytometer. Gate boundaries were set at the trough between high and low CEA populations in PDOs with mixed CEA expression and identical gates were used across all samples. The percentage of CEAhi and CEAlo populations and mean fluorescence intensities (MFI) were calculated for each PDO.
10^5 PDO cells/well were seeded in 12 well plates and allowed to attach overnight. […] Cells were harvested using TrypLE Express, stained for CEA with the CH1A1A primary antibody and the R-Phycoerythrin conjugated secondary antibody and analyzed by FACS as described above.

[2] = tested on: patient derived colorectal cancer organoids (PDOs); experiment: allogeneic CD8 T cell co-culture assay with patient derived colorectal cancer organoids, GFP confluence growth assessment; assay type: cell-based, human; settings: CEAhi PDO CRC-01; E:T 2:1; 20 nM
Description: In order to assess the sensitivity of patient-derived colorectal cancer organoids (PDOs) to cibisatamab immunotherapy, eight patient derived colorectal cancer organoid lines with various cell surface CEA expression levels were generated and treated with cibisatamab (20 nM) or an untargeted control antibody (20 nM) during 10 days of co-culture with allogeneic CD8 T cells. CD8 T cells were isolated from allogeneic healthy donor peripheral blood mononuclear cells (PBMCs) by magnetic bead sorting and expanded in vitro with IL2 and CD3/CD28 beads for 7-14 days. GFP-tagged CRC PDO cells were then seeded in 96 well plates, T cells were added the following day and the co-cultures were imaged every 2-3 days on an automated 96 well plate fluorescence microscope. […] Co-culture with CD8 T cells without any antibody was included as a further control to enable the identification of alloreactive donor T cells. […]
PDOs were harvested with TrypLE Express and neutralised with DMEM/F12 Ham medium (Sigma Aldrich) with 10% FBS. Cells were filtered through a 70 μm filter, counted and resuspended in phenol-red free RPMI medium (Thermo Fisher) supplemented with 10% FBS (Biosera), 1× Glutamax and 100 units penicillin-streptomycin. […]
The GFP confluence was quantified every 48h-72h over a 10-day period using the GFP confluence application on the Celigo Imaging Cytometer (Nexcelom Bioscience). […]

Row | Compound | effect on CEA expression and CEAhi subpopulation [1] | growth suppression activity of T cells in the presence of antibody [2]
1 | Cc1cc(-c2ncc(CC(=O)Nc3ccc(-c4cnccn4)cn3)cc2C)ccn1 [LGK-974] | increase in CEA expression and the CEAhi subpopulation | 
2 | DP47-TCB: untargeted antibody used as a negative control [reference compound] |  | no activity

From patent publication US20220017623A1, “TREATMENT OF CANCER USING A CEA CD3 BISPECIFIC ANTIBODY AND A WNT SIGNALING INHIBITOR” (Hoffmann-La Roche Inc., priority 2019, published 2022)
